The compounds below were run on HBV rcDNA (assay: HepDE19 assay with bDNA quantitation of HBV rcDNA). Conditions: HepDE19 cells, 7 day incubation, rcDNA measured by Quantigene 2.0 bDNA assay, top concentration 25 μM; read-out: DE-19bDNA EC50.
Format: cell-based, hepatitis B virus (HBV)
In short: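 HepDE19 cells were switched to tetracycline-free medium and exposed to compound (0.5% DMSO final) for 7 days at 37° C. rcDNA was then quantified by bDNA with an HBV-specific probe set. In parallel, viability was read as ATP content (CellTiter-Glo) after 4 days on replicate plates.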
`CC(c1cn(C)c(=O)c2cc(F)c(F)cc12)N(C)C(=O)[C@@H]1Cc2ccccc2N1` (stereo partly drawn) [Compound 183, (2S)-N-(1-(6,7-difluoro-2-methyl-1-oxo-1,2-dihydroisoquinolin-4-yl)ethyl)-N-methylindoline-2-carboxamide] gave an EC50 of 0.07 µM.
Work on `CC(c1cn(C)c(=O)c2cc(F)c(F)cc12)N(C)C(=O)[C@@H]1Cc2ccccc2N1` (stereo partly drawn) [Compound 184, (2S)-N-(1-(6,7-difluoro-2-methyl-1-oxo-1,2-dihydroisoquinolin-4-yl)ethyl)-N-methylindoline-2-carboxamide] yielded an EC50 of 4.2 µM.

Same assay, conditions: Hepatitis B virus, HepDE19, 168 h, HepDE19 cells, 7 day incubation, rcDNA measured by Quantigene 2.0 bDNA assay, top concentration 25 μM; read-out: DE-19bDNA EC50
With `C[C@H](c1c[nH]c(=O)c2ccccc12)N(C)C(=O)c1cc2cc(F)ccn2c1` [Compound 153, (R)-7-Fluoro-N-methyl-N-(1-(1-oxo-1,2-dihydroisoquinolin-4-yl)ethyl)indolizine-2-carboxamide] the EC50 was 0.35 µM.
For `C[C@H](c1c[nH]c(=O)c2ccccc12)N(C)C(=O)c1cc2c(Cl)cccn2c1` [Compound 154, (R)-8-Chloro-N-methyl-N-(1-(1-oxo-1,2-dihydroisoquinolin-4-yl)ethyl)indolizine-2-carboxamide], the EC50 was 0.14 µM.
In the case of `C[C@H](c1c[nH]c(=O)c2ccccc12)N(C)C(=O)c1cc2ccccc2[nH]1` [Compound 155, (R)-N-Methyl-N-(1-(1-oxo-1,2-dihydroisoquinolin-4-yl)ethyl)-1H-indole-2-carboxamide], the EC50 is reported as 0.17 µM.
For `C[C@H](c1c[nH]c(=O)c2ccccc12)N(C)C(=O)c1cc2c(F)cccc2[nH]1` [Compound 156, (R)-4-Fluoro-N-methyl-N-(1-(1-oxo-1,2-dihydroisoquinolin-4-yl)ethyl)-1H-indole-2-carboxamide], the EC50 was 0.12 µM.
`C[C@H](c1c[nH]c(=O)c2ccccc12)N(C)C(=O)c1cc2c(F)cc(F)cc2[nH]1` [Compound 158, (R)-4,6-Difluoro-N-methyl-N-(1-(1-oxo-1,2-dihydroisoquinolin-4-yl)ethyl)-1H-indole-2-carboxamide] gave an EC50 of 0.13 µM.
Work on `C[C@H](c1c[nH]c(=O)c2ccccc12)N(C)C(=O)c1cc2cc(F)c(F)cc2[nH]1` [Compound 159, (R)-5,6-Difluoro-N-methyl-N-(1-(1-oxo-1,2-dihydroisoquinolin-4-yl)ethyl)-1H-indole-2-carboxamide] yielded an EC50 of 0.1 µM.
For `C[C@H](c1c[nH]c(=O)c2ccccc12)N(C)C(=O)[C@@H]1Cc2ccccc2N1` [Compound 160, (S)-N-Methyl-N-((R)-1-(1-oxo-1,2-dihydroisoquinolin-4-yl)ethyl)indoline-2-carboxamide], the EC50 was 0.39 µM.

Same assay, conditions: Hepatitis B virus, HepDE19, 168 h, read-out: DE-19bDNA EC50 (μM), HepDE19 cells, 7 day incubation, rcDNA measured by Quantigene 2.0 bDNA assay, top concentration 25 μM
`C[C@H](c1c[nH]c(=O)c2ccccc12)N(C)C(=O)c1cc2ccccn2c1` [Compound 152, (R)-N-Methyl-N-(1-(1-oxo-1,2-dihydroisoquinolin-4-yl)ethyl)indolizine-2-carboxamide] showed an EC50 of 0.47 µM.
`C[C@H](c1c[nH]c(=O)c2ccccc12)N(C)C(=O)c1cc2cc(F)ccc2[nH]1` [Compound 157, (R)-5-Fluoro-N-methyl-N-(1-(1-oxo-1,2-dihydroisoquinolin-4-yl)ethyl)-1H-indole-2-carboxamide] showed an EC50 of 0.15 µM.
With `C[C@H](c1c[nH]c(=O)c2cc(F)c(F)cc12)N(C)C(=O)c1ccc2cccn2c1` [Compound 185, (R)-N-(1-(6,7-Difluoro-1-oxo-1,2-dihydroisoquinolin-4-yl)ethyl)-N-methylindolizine-6-carboxamide] the EC50 was 0.04 µM.
`C[C@H](c1c[nH]c(=O)c2cc(F)c(F)cc12)N(C)C(=O)c1cc2sc(Cl)cc2[nH]1` [Compound 186, (R)-2-Chloro-N-(1-(6,7-difluoro-1-oxo-1,2-dihydroisoquinolin-4-yl)ethyl)-N-methyl-4H-thieno[3,2-b]pyrrole-5-carboxamide] was tested, and the EC50 was 0.03 µM.
`C[C@H](c1c[nH]c(=O)c2cc(F)c(F)cc12)N(C)C(=O)c1ccn2cccc2c1` [Compound 187, (R)-N-(1-(6,7-Difluoro-1-oxo-1,2-dihydroisoquinolin-4-yl)ethyl)-N-methylindolizine-7-carboxamide] showed an EC50 of 0.18 µM.

From patent US20230295115A1, “SUBSTITUTED ISOQUINOLINYLMETHYL AMIDES, ANALOGUES THEREOF, AND METHODS USING SAME” (priority 2020, published 2023)
